Data: patent EP1566447A1, “Glimepiride- and insulin-induced glycosylphosphatidylinositol-specific phospholipase C regulation” (priority 2004, dated 2005)

Columns and labels:
GPI-PLC = conditions: read-out: IC50 for inhibition of the GPI-PLC; isolated intact hcDIGs; Fig. 4 Panels B, D
rat adipocytes = experiment: isoproterenol-induced lipolysis measured as release of NBD-FA; type: cell-based; conditions: Rattus norvegicus, Adipocyte, given as 'up to', read-out: impairment of insulin inhibition of NBD-FA release
Experimental: Electroporation was performed as described in "Müller, G. et al., (2000) Mol. Cell. Biol. 20: 4708-4723". Lipolysis was determined as release of glycerol or fluorescent NBD-FA from prelabeled and isoproterenol-stimulated adipocytes as described in "Müller, G. et al., (2003) Biochimie 85: 1245-1256". Gce1 was detected by photolabeling of solubilized plasma membranes or hc/IcDIGs (10-50 µg protein) with 8-N3-[^32P]cAMP and subsequent phosphorimaging as described in "Müller, G. et al., (1994) Biochemistry 33: 12149-12159". 5'-Nuc, aP and AChE activities were measured according to "Eliakim, R. et al., (1990) Biochim. Biophys. Acta […]". Protein was determined using the BCA protein determination kit from Pierce (Rockford, IL) and BSA as calibration standard. SDS-PAGE was performed using precast gels (Novex, San Diego, CA; 10 % Bis-Tris resolving gel, morpholinopropanesulfonic acid-SDS running buffer). Lumiimages were evaluated on a Lumilmager using Lumilmager software (Roche Diagnostics). Phosphor- and fluorescence images were processed and quantified using the Storm 860 Phosphorlmager system (Molecular Dynamics, Gelsenkirchen, Germany). Figures were constructed using the Adobe Photoshop software (Adobe Systems, Mountain View, CA). […]

lipoprotein lipase (LPL) = target: T1, lipoprotein lipase (LPL) (Bos taurus, UniProt P11151); experiment: selectivity: lipoprotein lipase assay; type: biochemical, bovine; conditions: 50 µM
T1 construct: purchased Sigma/Aldrich (Deisenhofen, Germany); host or cells: bovine milk
T1 sequence (P11151 29-478): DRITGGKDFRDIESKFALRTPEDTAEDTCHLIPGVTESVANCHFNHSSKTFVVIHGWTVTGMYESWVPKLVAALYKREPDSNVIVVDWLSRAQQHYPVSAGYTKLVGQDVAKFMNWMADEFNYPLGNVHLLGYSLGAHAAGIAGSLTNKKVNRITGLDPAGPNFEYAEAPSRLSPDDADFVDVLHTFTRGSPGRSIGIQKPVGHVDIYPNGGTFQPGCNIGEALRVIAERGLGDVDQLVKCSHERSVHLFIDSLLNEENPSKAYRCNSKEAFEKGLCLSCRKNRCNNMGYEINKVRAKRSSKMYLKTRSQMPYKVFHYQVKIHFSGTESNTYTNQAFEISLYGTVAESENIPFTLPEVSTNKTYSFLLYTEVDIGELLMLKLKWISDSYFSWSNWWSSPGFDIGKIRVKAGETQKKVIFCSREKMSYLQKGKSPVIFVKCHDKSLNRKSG
Experimental: Hormone-sensitive lipase (HSL) and lipoprotein lipase (LPL) were measured using a radiolabeled triolein droplet emulsion as described in "Vertesy et al., (2002) Journal Antibiotics 55:480-494". Pancreatic lipase (PL) was determined by incubation of 0.25 mmol tributyrin in 2 ml of 5 mM Tris/HCl (pH 6.5), 6 mM sodium taurodeoxycholate, 150 mM NaCl, 1 mM CaCl2 with porcine PL and colipase in the same buffer using a recording pH stat (stirring at 1000 rpm at 25°C) with the pH adjusted to 6.5. PC-PLC was assayed by incubation of 0.2 ml of 10 mM dipalmitoyllecithin, 0.1 ml of 10 mM SDC and 0.1 ml of 0.03 M CaCl2 with bacterial PC-PLC (in 50 mM Tris/HCl, pH 7.5, 0.1 % BSA) for 10 min at 37°C. The reaction was terminated by addition of 0.1 ml of 50 % TCA and subsequently of 2.5 ml of […]. After centrifugation (1500xg, 15 min), 0.2-ml portions of the upper methanol/water phase (~ 1.33 ml) was removed, supplemented with 0.5 ml of 60 % HClO4, then heated at 170°C for 1 h and finally analyzed for inorganic phosphate. Mammalian PI-PLC was measured by incubation of 0.1 ml of 10 mM PI, 0.1 ml of 0.8 % sodium deoxycholate, 0.1 % BSA, 0.2 ml of 100 mM sodium borate (pH 7.5) and rat liver PI-PLC for 20 min at 37°C. The reaction was terminated and further processed as described for the PC-PLC. […] Radioactive phosphatidic acid was detected by phosphorimaging. […]

## CCCCCCCCCCCCP1(=O)O[C@@H]2[C@H](O)[C@@H](O)[C@H](O)[C@@H](O)[C@@H]2O1 (mixture of isomers) [GPI-2350, myo-inositol-1,2-cyclo-dodecylphosphonic acid]
GPI-PLC
  IC50: 1000 nM
Rat adipocytes
  inhibition at 50 µM: 25 to 30%
Lipoprotein lipase (LPL)
  effect on lipase activity: not significantly affected
